Test results as given in patent US8686113B2 (priority 2009, dated 2014).
In brackets after ≈: the same amount, converted by molar mass. Like-named read-outs stand apart in the source and are kept apart here. Non-standard residues stand in square brackets, D forms with d. Residues, ends and D or L forms follow the SMILES beside them. Hyp = O=C(O)[C@@H]1C[C@@H](O)CN1; Orn = NCCC[C@H](N)C(=O)O

Columns and labels:
E. coli BL21 A1 = format: cell-based, Escherichia coli
How it was run: (§1)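 Broth microdilution in 1% TSB with twofold peptide series, final 128 μg/mL to 62.5 ng/mL, against 5×10^6 bacteria/mL stock suspension added 1:1. Incubated 20 h at 37 °C, growth read by absorbance at 595 nm; MIC is the lowest concentration with no growth, determined in triplicate.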

[1] = system: Escherichia coli DSM 10233
Method: (§2) The minimum inhibitory concentrations (MIC) of the antimicrobial peptides and peptide derivatives were determined in microdilution assays. These used a continuous peptide dilution in sterile flat-bottomed 96-well microtiter plates (polystyrene, Greiner Bio-One GmbH, Frickenhausen, Germany) and a total volume of 100 μL per well. The aqueous peptide or peptidomimetic solutions were diluted with 1% TSB water, to obtain a final concentration of 256 μg/mL. 50 μL of the peptide or peptidomimetic solution was pipetted into the first well of each series and stirred. From this solution, 50 μL was transferred to the second well, stirred and again 50 μL was transferred to the next well, and so on. A double dilution series is obtained, beginning at 256 μg/mL in the first well to 125 ng/mL in the twelfth well. The bacteria, e.g. E. coli BL21 A1, were cultured overnight at 37° C. in nutrient broth (NB, Carl Roth GmbH+Co. KG, Karlsruhe, Germany). 50 μL of a 5×10^6 bacteria/mL suspension in 1% TSB was added to each well of the microtiter plate and thus a final concentration of the peptides or peptidomimetics from 128 μg/mL (well 1) to 62.5 ng/mL (well 12) was established in each series. The plates were incubated at 37° C. for 20 h and then the absorption was measured at 595 nm with a TECAN microtiter plate spectrophotometer (Tecan Trading AG, Mannedorf, Switzerland). The MIC values of all peptides and peptidomimetics were determined in triplicate. Sterile water was used as negative control.
The peptides shown in Table 8 were investigated for their MIC against pathogenic bacteria such as E. coli DSM 10233, K. pneumoniae DSM 681 and P. aeruginosa DSM 3227.

[2] = mouse, serum
Method: For this, the peptides and peptidomimetics were dissolved in water, mouse serum was added and the peptide concentration was adjusted to 75 μg/mL. While shaking continuously, the mixture was incubated at 37° C. After 0, 30, 60, 120, 240 and 360 minutes, in each case an aliquot was taken and mixed with 15% aqueous trichloroacetic acid (Carl Roth GmbH & Co. KG; Karlsruhe, Germany). After incubation on ice for a further 10 minutes, the precipitated serum proteins were centrifuged off (5 min, 13400 rpm, MiniSpin, Eppendorf AG, Hamburg, Germany). The supernatant was removed, neutralized with 1 mol/L aqueous sodium hydroxide solution (Fluke Chemie GmbH, Buchs, Switzerland) and stored at −20° C. until analysis.
The supernatants were analyzed by RP-HPLC with a linear acetonitrile gradient (Biosolve BV, Valkenswaard, The Netherlands) in the presence of 0.1% trifluoroacetic acid (TFA, UV-grade, Fluka Chemie GmbH, Buchs, Switzerland) as ion-pairing reagent. The fractions were co-crystallized with α-cyanohydroxycinnamic acid (Bruker Daltonik GmbH; Bremen, Germany) as matrix (5.3 mg/mL in 50% acetonitrile in 0.1% aqueous TFA) and were analyzed with a tandem mass spectrometer (MALDI-TOF/TOF-MS, 4700 Proteomics Analyzer; Applied Biosystems GmbH, Weiterstadt, Germany) in the positive-ion reflector mode. The proportion of intact peptides and their degradation products or metabolites could thus be identified and quantified at the individual time points. The control used was 25% aqueous mouse serum, which was analyzed in parallel for the same time intervals.

M. luteus 10240 = assay: Growth inhibition assay (microdilution MIC); format: cell-based, Micrococcus luteus; conditions: 10240, 20 h
How it was run: as §1

K. pneumoniae 012-3131 = system: K. pneumoniae 012-3131
Method: as §2
(§3) The tests were in this case carried out in Mueller-Hinton medium (¼ concentrated), which is equivalent to 1% TSB.

E. coli ATCC BAA-457 = conditions: ¼ Muller-Hinton medium
Method: as §2, §3

[3] = system: K. pneumoniae K6 ATCC 700603
Method: as §2, §3

E. coli 045-849 SENTRY = conditions: 045-849 SENTRY
Method: as §2, §3

E. coli D31 J. Wilson = conditions: ¼ Muller-Hinton medium
Method: as §2, §3

K. pneumoniae ATCC 27799 = system: K. pneumoniae ATCC 27799
Method: as §2, §3

Row | Compound | MIC values against E. coli (E. coli BL21 A1) | MIC E. coli BL21 A1 (E. coli BL21 A1; 1% TSB, 20 h at 37° C.) | MIC E. coli DSM 10233 [1] | half-life ([2]; Half-life in 25% mouse serum, 25% aqueous mouse serum, 37° C., 75 μg/mL peptide) | half-life ([2]; half-life in 25% aqueous mouse serum, 25% serum) | MIC M. luteus 10240 (M. luteus 10240) | MIC E. coli BL21 A1 (E. coli BL21 A1; BL21, 20 h) | MIC K. pneumoniae 012-3131 (K. pneumoniae 012-3131) | MIC E. coli SEQ 102ATCC # BAA-4 57 (E. coli ATCC BAA-457) | MIC K. pneumoniae K6 ATCC 700603 ([3]; ATCC 700603) | MIC E. coli 045-849 SENTRY (E. coli 045-849 SENTRY) | MIC E. coli D31 J. Wilson (E. coli D31 J. Wilson) | MIC K. pneumoniae ATCC 27799 (K. pneumoniae ATCC 27799; ATCC 27799) | MIC K. pneumoniae K6 ATCC 700603 ([3]; ¼ Muller-Hinton medium) | MIC K. pneumoniae ATCC 27799 (K. pneumoniae ATCC 27799; ¼ Muller-Hinton medium)
1 | CC[C@H](C)[C@H](NC(=O)[C@@H]1C[C@@H](O)CN1C(=O)[C@H](CCCNC(=N)N)NC(=O)[C@@H]1CCCN1C(=O)[C@@H]1CCCN1C(=O)[C@H](CCCNC(=N)N)NC(=O)[C@@H]1CCCN1C(=O)[C@H](CCCNC(=N)N)NC(=O)[C@@H]1CCCN1C(=O)[C@H](CC(C)C)NC(=O)[C@H](Cc1ccc(O)cc1)NC(=O)[C@@H]1CCCN1C(=O)[C@@H]1CCCN1C(=O)[C@H](CCCCN)NC(=O)[C@H](CC(=O)O)NC(=O)[C@@H](N)C(C)C)C(=O)N[C@@H](Cc1ccc(O)cc1)C(=O)N[C@@H](CC(N)=O)C(=O)N[C@@H](CCCN)C(N)=O [SEQ ID NO. 63] (H-VDKPPYLPRPRPPR[Hyp]IYN[Orn]-NH2) | 4 µg/mL (≈ 1.74 µM) | 4 µg/mL (≈ 1.74 µM) | 1 to 4 µg/mL | > 360 min | > 360 min | 8 µg/mL (≈ 3.47 µM) |  |  |  |  |  |  |  |  | 
2 | CC[C@H](C)[C@H](NC(=O)[C@@H]1C[C@@H](O)CN1C(=O)[C@H](CCCNC(=N)N)NC(=O)[C@@H]1C[C@@H](O)CN1C(=O)[C@@H]1CCCN1C(=O)[C@H](CCCNC(=N)N)NC(=O)[C@@H]1CCCN1C(=O)[C@H](CCCNC(=N)N)NC(=O)[C@@H]1CCCN1C(=O)[C@H](CC(C)C)NC(=O)[C@H](Cc1ccc(O)cc1)NC(=O)[C@@H]1CCCN1C(=O)[C@@H]1CCCN1C(=O)[C@H](CCCCN)NC(=O)[C@H](CC(=O)O)NC(=O)[C@@H](N)C(C)C)C(=O)N[C@@H](Cc1ccc(O)cc1)C(=O)N[C@@H](CC(N)=O)C(=O)N[C@@H](CCCN)C(N)=O [SEQ ID NO. 108] (H-VDKPPYLPRPRP[Hyp]R[Hyp]IYN[Orn]-NH2) |  | 2 µg/mL (≈ 0.862 µM) | 1 to 4 µg/mL |  |  |  |  |  |  |  |  |  |  |  | 
3 | CC[C@H](C)[C@H](NC(=O)[C@H](Cc1ccc(O)cc1)NC(=O)[C@H](CC(N)=O)NC(=O)[C@@H](N)CCCN)C(=O)N[C@@H](CCCN)C(=O)N[C@@H](CCCNC(=N)N)C(=O)N1CCC[C@H]1C(=O)N1CCC[C@H]1C(=O)N[C@@H](CCCNC(=N)N)C(=O)N1CCC[C@H]1C(=O)N[C@@H](CCCNC(=N)N)C(=O)N1CCC[C@H]1C(=O)N[C@@H](CC(C)C)C(=O)N[C@@H](Cc1ccc(O)cc1)C(=O)N1CCC[C@H]1C(=O)N1CCC[C@H]1C(=O)N[C@@H](CCCCN)C(=O)N[C@@H](CC(=O)O)C(=O)N[C@H](C(N)=O)C(C)C [SEQ ID NO. 113, ONYIORPPRPRPLYPPKDV-NH2] (H-[Orn]NYI[Orn]RPPRPRPLYPPKDV-NH2) |  |  | 1 to 4 µg/mL |  |  |  |  |  |  |  |  |  |  |  | 
4 | CC[C@H](C)[C@H](NC(=O)[C@H](Cc1ccc(O)cc1)NC(=O)[C@H](CC(N)=O)NC(=O)[C@@H](N)CCCN)C(=O)N1C[C@H](O)C[C@H]1C(=O)N[C@@H](CCCNC(=N)N)C(=O)N1CCC[C@H]1C(=O)N1CCC[C@H]1C(=O)N[C@@H](CCCNC(=N)N)C(=O)N1CCC[C@H]1C(=O)N[C@@H](CCCNC(=N)N)C(=O)N1CCC[C@H]1C(=O)N[C@@H](CC(C)C)C(=O)N[C@@H](Cc1ccc(O)cc1)C(=O)N1CCC[C@H]1C(=O)N1CCC[C@H]1C(=O)N[C@@H](CCCCN)C(=O)N[C@@H](CC(=O)O)C(=O)N[C@H](C(N)=O)C(C)C [SEQ ID NO. 114] (H-[Orn]NYI[Hyp]RPPRPRPLYPPKDV-NH2) |  |  | 1 to 4 µg/mL |  |  |  |  |  |  |  |  |  |  |  | 
5 | CC[C@H](C)[C@H](NC(=O)[C@H](CCCNC(=N)N)NC(=O)[C@H](CCCNC(=N)N)NC(=O)[C@@H]1CCCN1C(=O)[C@@H]1CCCN1C(=O)[C@H](CCCNC(=N)N)NC(=O)[C@@H]1CCCN1C(=O)[C@H](CCCNC(=N)N)NC(=O)[C@@H]1C[C@@H](O)CN1C(=O)[C@H](CC(C)C)NC(=O)[C@H](Cc1ccc(O)cc1)NC(=O)[C@@H]1CCCN1C(=O)[C@@H]1CCCN1C(=O)[C@H](CCCCN)NC(=O)[C@H](CC(=O)O)NC(=O)[C@@H](N)C(C)C)C(=O)N[C@@H](Cc1ccc(O)cc1)C(=O)N[C@@H](CC(N)=O)C(=O)N[C@@H](CCCNC(=N)N)C(=O)O [compound 21] (H-VDKPPYL[Hyp]RPRPPRRIYNR-OH) |  |  |  |  |  | 16 µg/mL (≈ 6.65 µM) | 16 µg/mL (≈ 6.65 µM) | 32 µg/mL (≈ 13.3 µM) | 64 µg/mL (≈ 26.6 µM) | 64 µg/mL (≈ 26.6 µM) | 16 µg/mL (≈ 6.65 µM) | 32 µg/mL (≈ 13.3 µM) | 128 µg/mL (≈ 53.2 µM) |  | 
6 | CC[C@H](C)[C@H](NC(=O)[C@H](CCCNC(=N)N)NC(=O)[C@H](CCCNC(=N)N)NC(=O)[C@@H]1CCCN1C(=O)[C@@H]1CCCN1C(=O)[C@H](CCCNC(=N)N)NC(=O)[C@@H]1CCCN1C(=O)[C@H](CCCNC(=N)N)NC(=O)[C@@H]1CCCN1C(=O)[C@H](CC(C)C)NC(=O)[C@H](Cc1ccc(O)cc1)NC(=O)[C@@H]1CCCN1C(=O)[C@@H]1C[C@@H](O)CN1C(=O)[C@H](CCCCN)NC(=O)[C@H](CC(=O)O)NC(=O)[C@@H](N)C(C)C)C(=O)N[C@@H](Cc1ccc(O)cc1)C(=O)N[C@@H](CC(N)=O)C(=O)N[C@@H](CCCNC(=N)N)C(=O)O [compound 23] (H-VDK[Hyp]PYLPRPRPPRRIYNR-OH) |  |  |  |  |  | 16 µg/mL (≈ 6.65 µM) | 8 µg/mL (≈ 3.32 µM) | 16 µg/mL (≈ 6.65 µM) | 32 µg/mL (≈ 13.3 µM) | 32 µg/mL (≈ 13.3 µM) | 8 µg/mL (≈ 3.32 µM) | 8 µg/mL (≈ 3.32 µM) | 64 µg/mL (≈ 26.6 µM) |  | 
7 | H-VDKPPYLPRPKPPRRIYNNR-OH [compound 5] |  |  |  |  |  | 16 µg/mL | 16 µg/mL | 64 µg/mL | 128 µg/mL |  | 16 µg/mL | 64 µg/mL |  | 128 µg/mL | 128 µg/mL
8 | H-VDKPPYLPRPRPPRPIYNR-OH [compound 20] |  |  |  |  |  | 16 µg/mL | 8 µg/mL | 64 µg/mL | 32 µg/mL | 128 µg/mL | 8 µg/mL | 4 µg/mL | 64 µg/mL |  | 
9 | H-VDKPPYLPRPRPPRRIYNRN-OH [compound 16] |  |  |  |  |  | 16 µg/mL | 8 µg/mL | 32 µg/mL | 32 µg/mL | 64 µg/mL | 4 µg/mL | 32 µg/mL | 128 µg/mL |  | 
